By IC50 is commonly meant the concentration needed to halve the response being measured.

The text below walks through data of PMC5548696 (Bioorganic & medicinal chemistry letters, 2017).

One test relates to H+/K+ ATPase. The settings on record: cited from earlier work.
A further test addresses human ENGase. The settings on record: read-out: IC50, human ENGase inhibitors; earlier reports; cited from earlier work.
Another test has as its target T1, Recombinant human ENGase (Homo sapiens, UniProt Q8NFI3).
T1 sequence (Q8NFI3 1-743): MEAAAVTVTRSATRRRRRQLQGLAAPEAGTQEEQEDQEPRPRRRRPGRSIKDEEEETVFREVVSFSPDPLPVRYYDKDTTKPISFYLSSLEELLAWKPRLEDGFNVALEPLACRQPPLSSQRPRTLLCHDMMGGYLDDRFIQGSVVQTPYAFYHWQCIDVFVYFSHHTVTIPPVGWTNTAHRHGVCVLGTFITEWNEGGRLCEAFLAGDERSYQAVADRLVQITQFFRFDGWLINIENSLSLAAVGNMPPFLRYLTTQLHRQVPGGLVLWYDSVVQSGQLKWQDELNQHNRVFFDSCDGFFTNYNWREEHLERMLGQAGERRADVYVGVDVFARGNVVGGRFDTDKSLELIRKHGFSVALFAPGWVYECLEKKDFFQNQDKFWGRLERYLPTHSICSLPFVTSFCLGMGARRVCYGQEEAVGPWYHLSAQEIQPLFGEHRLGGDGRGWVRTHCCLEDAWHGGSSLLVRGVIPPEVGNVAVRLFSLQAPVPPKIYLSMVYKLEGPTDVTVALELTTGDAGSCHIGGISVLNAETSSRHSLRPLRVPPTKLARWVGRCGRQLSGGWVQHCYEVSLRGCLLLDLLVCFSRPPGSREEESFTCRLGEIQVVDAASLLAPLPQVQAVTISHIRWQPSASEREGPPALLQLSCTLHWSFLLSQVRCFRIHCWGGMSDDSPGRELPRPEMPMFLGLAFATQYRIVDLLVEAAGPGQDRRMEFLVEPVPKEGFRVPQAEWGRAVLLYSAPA
It counts as biochemical. The settings on record: 100 μM drug concentration; first round, 13 drugs.

As to `COCCCOc1ccnc(C[S+]([O-])c2nc3ccccc3[nH]2)c1C` (stereo not drawn) [Rabeprazole], the target affinity in the test with H+/K+ ATPase was ~ 70 nM.
With Man9GlcNAc-thiazoline, the IC50 on human ENGase is 420 nM.
On to `Cc1c(OCC(F)(F)F)ccnc1C[S+]([O-])c1nc2ccccc2[nH]1` (stereo not drawn) [Lansoprazole], for which the “inhibition of ENGase enzyme activity, preliminary ENGase inhibitor screening” value at Recombinant human ENGase is “inhibited ENGase enzyme activity”.
